The experiment deals with Radical scavenging activity. The experiment can be described thus: Antioxidant activity assessed as DPPH radical scavenging activity. In kind it is functional. On the technique in general: Loss of DPPH colour is used to gauge radical scavenging.

Active and inactive are the calls of the source. The rule behind the calls is not given here.

As for `CC(C)=C[C@H]1C=C(C)[C@@H]2CC[C@H](C)[C@@]23CCC(C)=C[C@@H]13` (relative stereo), the outcome was inactive. To `CC(C)=C[C@H]1C=C(C)[C@H]2CC[C@H](C)[C@@H]3CC=C(C)[C@@H]1[C@@H]32` (relative stereo) belongs “inactive”.

Source of the values: ChEMBL document CHEMBL2010733, “Amphilectane diterpenes from Salvia sclarea: biosynthetic considerations” (J Nat Prod, 2012).
